The record followed here is patent publication US9682938B2, “Pyrazolone derivatives as nitroxyl donors” (Cardioxyl Pharmaceuticals, Inc., priority 2014, dated 2017).

What all share (assay type): in vitro ADME
Series [1] in a line: In vitro plasma stability, rat plasma. To be noted: male, pH 7.4, 5 μM, 37° C., sampling 0-360 minutes, read-out: T1/2 Rat. As for the experimental part: (§1) Certain compounds from Table 1 were tested for their stability in plasma. The assay system comprised plasma from rat, dog or human (at least 3 donors, male, pooled) at pH 7.4, and (ii) an anticoagulant (sodium heparin or sodium citrate). Each test compound (5 μM) was incubated in plasma at 37° C. on a THERMOMIXER® with shaking. Three samples (n=3) were taken at each of seven sampling time points: 0, 10, 30, 60, 90, 180 and 360 minutes. The samples were immediately combined with 3 volumes (i.e., 3 times the volume of plasma) of acetonitrile containing 1% formic acid and an internal standard to terminate the reaction. AB SCIEX API 3000 LC-MS/MS analysis of the test compounds was performed without a standard curve. Plasma half-lives (T1/2) of the test compounds were determined from graphs of the percent remaining values using the peak area response ratio.

Series [2] is described as follows: In vitro plasma stability, human plasma. To be noted: male, pH 7.4, 5 μM, 37° C., sampling 0-360 minutes, read-out: T1/2 Human. As to the method: as §1
The nature of series [3]: In vitro plasma stability, dog plasma. To be noted: male, pH 7.4, 5 μM, 37° C., sampling 0-360 minutes, read-out: T1/2 Dog. As to the method:
as §1

Each structure is given as a SMILES string.

Regarding `CN1N=C(c2ccc(F)cc2)C(C)(NO)C1=O` (stereo not drawn) [Compound 5, 5-(4-fluorophenyl)-4-(hydroxyamino)-2,4-dimethyl-2,4-dihydro-3H-pyrazol-3-one], the half-life at 5 μM was 78 min in series [1], 108 min in series [2] and 172 min in series [3].

Consider `Cc1cc(C)cc(C2=NN(C)C(=O)C2(C)NO)c1` (stereo not drawn) [Compound 7, 5-(3,5-dimethylphenyl)-4-(hydroxyamino)-2,4-dimethyl-2,4-dihydro-3H-pyrazol-3-one], for which the half-life at 5 μM was found to be 34 min in series [1], 104 min in series [2] and 117 min in series [3].

In the case of `CC(C)N1N=C(c2ccccc2Cl)C(C)(NO)C1=O` (stereo not drawn) [Compound 8, 5-(2-chlorophenyl)-4-(hydroxyamino)-2-iso-propyl-4-methyl-2,4-dihydro-3H-pyrazol-3-one], in series [3], the half-life at 5 μM stood at 170 min.

`CN1N=C(c2cc(Cl)cc(Cl)c2)C(C)(NO)C1=O` (stereo not drawn) [Compound 9, 5-(3,5-dichlorophenyl)-4-(hydroxyamino)-2,4-dimethyl-2,4-dihydro-3H-pyrazol-3-one]: the half-life at 5 μM was found to be 17 min in series [1], 43 min in series [2] and 59 min in series [3].

As for `CO/N=C(\C)C1(NO)C(=O)N(C)N=C1C(C)(C)C` (stereo not drawn) [Compound 10, 5-(tert-butyl)-4-(hydroxyamino)-4-(1-(methoxyimino)ethyl)-2-methyl-2,4-dihydro-3H-pyrazol-3-one], the half-life at 5 μM in series [1] came out at 21 min; in series [2], 12 min; in series [3] it was 40 min.

As to `CN1N=C(c2ccc([S+](C)[O-])cc2)C(C)(NO)C1=O` (stereo not drawn) [Compound 11, 4-(hydroxyamino)-2,4-dimethyl-5-(4-(methylsulfinyl)phenyl)-2,4-dihydro-3H-pyrazol-3-one], the half-life at 5 μM in series [1] was 88 min; in series [2], 65 min; in series [3], 39 min.

Consider `CN1N=C(c2ccc(F)cc2Cl)C(C)(NO)C1=O` (stereo not drawn) [Compound 12, 5-(2-chloro-4-fluorophenyl)-4-(hydroxyamino)-2,4-dimethyl-2,4-dihydro-3H-pyrazol-3-one], for which the half-life at 5 μM worked out at 20 min in series [1], 18 min in series [2] and 28 min in series [3].

For the compound `CO/N=C(\C)C1(NO)C(=O)N(c2ccccc2)N=C1C(C)C` (stereo not drawn) [Compound 16, 4-(hydroxyamino)-5-iso-propyl-4-(1-(methoxyimino)ethyl)-2-phenyl-2,4-dihydro-3H-pyrazol-3-one], the half-life at 5 μM in series [3] came out at 8 min.

On to `CO/N=C(\C)C1(NO)C(=O)N(c2ccc(Br)cc2)N=C1C(C)C` (stereo not drawn) [Compound 17, 2-(4-bromophenyl)-4-(hydroxyamino)-5-iso-propyl-4-(1-(methoxyimino)ethyl)-2,4-dihydro-3H-pyrazol-3-one], for which the half-life at 5 μM in series [3] was less than 1 min.

For the compound `CO/N=C(\C)C1(NO)C(=O)N(c2ccccc2)N=C1C(C)(C)C` (stereo not drawn) [Compound 18, 5-(tert-butyl)-4-(hydroxyamino)-4-(1-(methoxyimino)ethyl)-2-phenyl-2,4-dihydro-3H-pyrazol-3-one], the half-life at 5 μM in series [1] came out at 17 min; in series [2], 26 min; in series [3] it was 13 min.

For `CO/N=C(\C)C1(NO)C(=O)N(C)N=C1C1CC1` (stereo not drawn) [Compound 20, 5-cyclopropyl-4-(hydroxyamino)-4-(1-(methoxyimino)ethyl)-2-methyl-2,4-dihydro-3H-pyrazol-3-one], in series [3], the half-life at 5 μM was determined as 20 min.

`CO/N=C(\C)C1(NO)C(=O)N(C(C)C)N=C1C(C)(C)C` (stereo not drawn) [Compound 28, 5-(tert-butyl)-4-(hydroxyamino)-2-iso-propyl-4-(1-(methoxyimino)ethyl)-2,4-dihydro-3H-pyrazol-3-one]: in series [3], the half-life at 5 μM turned out to be 87 min.

Regarding `CC1(NO)C(=O)N(c2ccccc2)N=C1c1ccccc1F` (stereo not drawn) [Compound 29, 5-(2-fluorophenyl)-4-(hydroxyamino)-4-methyl-2-phenyl-2,4-dihydro-3H-pyrazol-3-one], in series [3], the half-life at 5 μM was found to be 58 min.

Regarding `CC1(NO)C(=O)N(c2ccc(Br)cc2)N=C1c1ccccc1Cl` (stereo not drawn) [Compound 44, 1-(4-bromophenyl)-3-(2-chlorophenyl)-4-(hydroxyamino)-4-methyl-1H-pyrazol-5(4H)-one], in series [3], the half-life at 5 μM is 26 min.

Regarding `CC1=NN(c2ccc(Br)cc2)C(=O)C1(NO)c1ccccc1` (stereo not drawn) [Compound 47, 1-(4-bromophenyl)-4-(hydroxyamino)-3-methyl-4-phenyl-1H-pyrazol-5(4H)-one], in series [3], the half-life at 5 μM stood at 11 min.

With `CC1(NO)C(=O)N(c2ccc(Br)cc2)N=C1c1ccccc1` (stereo not drawn) [Compound 50, 1-(4-bromophenyl)-4-(hydroxyamino)-4-methyl-3-phenyl-1H-pyrazol-5(4H)-one], the half-life at 5 μM in series [3] was determined as 356 min.

Regarding `CO/N=C(\C)C1(NO)C(=O)N(C)N=C1c1ccc(C(F)(F)F)cc1` (stereo not drawn) [Compound 52, 4-(hydroxyamino)-4-(1-(methoxyimino)ethyl)-1-methyl-3-(4-(trifluoromethyl)phenyl)-1H-pyrazol-5(4H)-one], the half-life at 5 μM in series [3] is 8 min.

On to `CN1N=C(c2cccc(Cl)c2)C(C)(NO)C1=O` (stereo not drawn) [Compound 54, 3-(3-chlorophenyl)-4-(hydroxyamino)-1,4-dimethyl-1H-pyrazol-5(4H)-one], for which the half-life at 5 μM in series [3] amounted to 159 min.

On to `COc1ccccc1C1=NN(C)C(=O)C1(C)NO` (stereo not drawn) [Compound 55, 4-(hydroxyamino)-3-(2-methoxyphenyl)-1,4-dimethyl-1H-pyrazol-5(4H)-one], for which the half-life at 5 μM in series [3] turned out to be 116 min.

On to `CN1N=C(c2ccccc2OC(F)(F)F)C(C)(NO)C1=O` (stereo not drawn) [Compound 56, 4-(hydroxyamino)-1,4-dimethyl-3-(2-(trifluoromethoxy)phenyl)-1H-pyrazol-5(4H)-one], for which, in series [3], the half-life at 5 μM came out at 69 min.

In the case of `CN1N=C(c2cccc(Cl)c2Cl)C(C)(NO)C1=O` (stereo not drawn) [Compound 57, 3-(2,3-dichlorophenyl)-4-(hydroxyamino)-1,4-dimethyl-1H-pyrazol-5(4H)-one], the half-life at 5 μM in series [3] stood at 15 min.

`CN1N=C(c2ccc(Cl)cc2Cl)C(C)(NO)C1=O` (stereo not drawn) [Compound 58, 3-(2,4-dichlorophenyl)-4-(hydroxyamino)-1,4-dimethyl-1H-pyrazol-5(4H)-one]: the half-life at 5 μM in series [3] worked out at 19 min.

Regarding `CN1N=C(c2ccccc2C(F)(F)F)C(C)(NO)C1=O` (stereo not drawn) [Compound 60, 4-(hydroxyamino)-1,4-dimethyl-3-(2-(trifluoromethyl)phenyl)-1H-pyrazol-5(4H)-one], in series [3], the half-life at 5 μM stood at 49 min.

For `CC1(NO)C(=O)N(c2ccccc2)N=C1C(F)(F)F` (stereo not drawn) [Compound 61, 4-(hydroxyamino)-4-methyl-1-phenyl-3-(trifluoromethyl)-1H-pyrazol-5(4H)-one], the half-life at 5 μM in series [3] is greater than 360 min.

Consider `CCOc1cc(F)ccc1C1=NN(C)C(=O)C1(C)NO` (stereo not drawn) [Compound 62, 3-(2-ethoxy-4-fluorophenyl)-4-(hydroxyamino)-1,4-dimethyl-1H-pyrazol-5(4H)-one], for which the half-life at 5 μM in series [1] turned out to be 114 min; in series [3] it was 44 min.

Regarding `CO/N=C(\C)C1(NO)C(=O)N(C)N=C1C(C)C` (stereo not drawn) [Compound 63, 4-(hydroxyamino)-3-isopropyl-4-(1-(methoxyimino)ethyl)-1-methyl-1H-pyrazol-5(4H)-one], in series [3], the half-life at 5 μM is greater than 360 min.

Turning to `CC1=NN(C)C(=O)C1(NO)c1ccc([S+](C)[O-])cc1` (stereo not drawn) [Compound 65, 4-(hydroxyamino)-1,3-dimethyl-4-(4-(methylsulfinyl)phenyl)-1H-pyrazaol-5(4H)-one], the half-life at 5 μM in series [3] was 8 min.

For `COc1ccc(C2(NO)C(=O)N(C)N=C2C)cc1C` (stereo not drawn) [Compound 76, 4-(Hydroxyamino)-4-(4-methoxy-3-methylphenyl)-1,3-dimethyl-4,5-dihydro-1H-pyrazol-5-one], the half-life at 5 μM in series [3] is 21 min.

As to `CN1N=C(c2ccc(C(C)(C)C)cc2)C(C)(NO)C1=O` (stereo not drawn) [Compound 91, 3-(4-tert-Butylphenyl)-4-(hydroxyamino)-1,4-dimethyl-4,5-dihydro-1H-pyrazol-5-one], the half-life at 5 μM in series [3] was found to be 226 min.

In the case of `CN1N=C(c2ccc(C(=O)NCC(=O)O)cc2)C(C)(NO)C1=O` (stereo not drawn) [Compound 95, 2-({4-[4-(Hydroxyamino)-1,4-dimethyl-5-oxo-4,5-dihydro-1H-pyrazol-3-yl]phenyl}formamido)acetic acid], the half-life at 5 μM in series [3] worked out at 120 min.

`CC1=NN(C)C(=O)C1(NO)c1cccc(F)c1` (stereo not drawn) [Compound 96, 4-(3-Fluorophenyl)-4-(hydroxyamino)-1,3-dimethyl-4,5-dihydro-1H-pyrazol-5-one]: in series [3], the half-life at 5 μM is 6 min.

Regarding `CC1=NN(C)C(=O)C1(NO)c1cccc(Cl)c1` (stereo not drawn) [Compound 99, 4-(3-Chlorophenyl)-4-(hydroxyamino)-1,3-dimethyl-4,5-dihydro-1H-pyrazol-5-one], the half-life at 5 μM in series [3] amounted to 4 min.

With `CC1=NN(C)C(=O)C1(NO)/C(C)=N/Oc1ccccc1` (stereo not drawn) [Compound 102, 4-(Hydroxyamino)-1,3-dimethyl-4-[1-(phenoxyimino)ethyl]-4,5-dihydro-1H-pyrazol-5-one], in series [3], the half-life at 5 μM is less than 1 min.

Turning to `CC1=NN(C)C(=O)C1(NO)/C(C)=N/OCc1ccccc1` (stereo not drawn) [Compound 103, 4-(Hydroxyamino)-1,3-dimethyl-4-[1-(benzyloxyimino)ethyl]-4,5-dihydro-1H-pyrazol-5-one], the half-life at 5 μM in series [3] is 3 min.

As for `CO/N=C(\C)C1(NO)C(=O)N(c2ccccc2)N=C1Sc1ccccc1` (stereo not drawn) [Compound 128, 4-(Hydroxyamino)-4-[1(methoxyimino)ethyl]-1-phenyl-3-(phenylsulfanyl)-4,5-dihydro-1H-pyrazol-5-one], the half-life at 5 μM in series [1] amounted to 7 min; in series [3], 3 min.
